Calls of active or inactive are those of the source.
What was measured:
Format in all cases: functional
Aurora kinase B = Aurora kinase B (Homo sapiens, UniProt Q96GD4)
[1] = target: Mitogen-activated protein kinase kinase kinase 20 (Homo sapiens, UniProt Q9NYL2)
[2] = target: MAP kinase-interacting serine/threonine-protein kinase 2 (Homo sapiens, UniProt Q9HBH9)
[3] = target: Dual specificity tyrosine-phosphorylation-regulated kinase 4 (Homo sapiens, UniProt Q9NR20)
[4] = target: Serine/threonine-protein kinase MRCK alpha (Homo sapiens, UniProt Q5VT25)
[5] = target: Protein kinase C gamma type (Homo sapiens, UniProt P05129)
[6] = target: Glycogen synthase kinase-3 beta (Homo sapiens, UniProt P49841);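 also: value comes from a broad kinome profiling panel, with GSK3B as the panel member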
[7] = target: Dual specificity tyrosine-phosphorylation-regulated kinase 3 (Homo sapiens, UniProt O43781);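 also: measured as one member of a broad kinase panel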
[8] = target: Fibroblast growth factor receptor 1 (Homo sapiens, UniProt P11362)
[9] = target: Dual specificity protein kinase CLK2 (Homo sapiens, UniProt P49760)
[10] = target: Vascular endothelial growth factor receptor 3 (Homo sapiens, UniProt P35916);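 also: value from a kinome-wide profiling panel, with FLT4 as the panel member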
[11] = target: Protein kinase C iota type (Homo sapiens, UniProt P41743);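 also: measured within a kinome-wide kinase panel, PRKCI as panel member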
[12] = target: Rho-associated protein kinase 1 (Homo sapiens, UniProt Q13464);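 also: measured within a broad kinome-wide panel profiling many kinases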
[13] = target: Casein kinase II subunit alpha (Homo sapiens, UniProt P68400)
[14] = target: Protein kinase C delta type (Homo sapiens, UniProt Q05655)
SRSF protein kinase 1 = SRSF protein kinase 1 (Homo sapiens, UniProt Q96SB4);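 also: measured as one member of a kinome-wide kinase profiling panel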
[15] = target: MAP kinase-activated protein kinase 2 (Homo sapiens, UniProt P49137);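 also: measured as one member of a kinome-wide kinase panel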
[16] = target: Serine/threonine-protein kinase 3 (Homo sapiens, UniProt Q13188);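 also: measured as one member of a kinome-wide kinase panel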
[17] = target: Calcium/calmodulin-dependent protein kinase type 1 (Homo sapiens, UniProt Q14012)
[18] = target: Cyclin-dependent kinase 1 (Homo sapiens, UniProt P06493);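 also: Kinome-wide panel profiling, with the target listed as panel member CDC2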
[19] = target: Casein kinase I isoform delta (Homo sapiens, UniProt P48730);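 also: measured as one member (CSNK1D) of a kinome panel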
[20] = target: Mitogen-activated protein kinase 12 (Homo sapiens, UniProt P53778);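 also: measured as one member of a kinome-wide kinase profiling panel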
[21] = target: Serine/threonine-protein kinase DCLK1 (Homo sapiens, UniProt O15075);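 also: affinity for DCLK1 (listed as DCAMKL1) measured as one member of a kinome-wide kinase profiling panel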
[22] = target: Phosphorylase b kinase gamma catalytic chain, liver/testis isoform (Homo sapiens, UniProt P15735);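 also: PHKG2 measured as one member of a kinome-wide kinase panel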
[23] = target: Serine/threonine-protein kinase PAK 1 (Homo sapiens, UniProt Q13153)
[24] = target: Mast/stem cell growth factor receptor Kit (Homo sapiens, UniProt P10721);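 also: KIT entry within a kinase panel assay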
[25] = target: Serine/threonine-protein kinase pim-3 (Homo sapiens, UniProt Q86V86);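 also: value obtained as one member of a broad kinase panel profiling effort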
[26] = target: Casein kinase I isoform gamma-1 (Homo sapiens, UniProt Q9HCP0);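 also: measured as the CSNK1G1 member of a kinome profiling panel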
[27] = target: MAP kinase-activated protein kinase 3 (Homo sapiens, UniProt Q16644);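 also: value comes from a kinome-wide profiling panel in which MAPKAPK3 is one of the panel members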
[28] = target: Mitogen-activated protein kinase 1 (Homo sapiens, UniProt P28482)

Measured: Ki

Sequence of Cyclin-dependent kinase 1 (P06493 whole entry, canonical isoform): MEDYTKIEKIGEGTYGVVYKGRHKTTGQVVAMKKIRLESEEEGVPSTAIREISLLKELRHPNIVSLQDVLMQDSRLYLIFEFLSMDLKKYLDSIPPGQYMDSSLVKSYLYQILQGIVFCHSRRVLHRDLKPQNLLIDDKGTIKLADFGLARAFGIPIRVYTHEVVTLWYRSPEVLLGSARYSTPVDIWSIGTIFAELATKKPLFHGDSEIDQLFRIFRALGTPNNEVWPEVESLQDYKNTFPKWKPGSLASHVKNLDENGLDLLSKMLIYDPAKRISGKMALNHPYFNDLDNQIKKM
Sequence of MAP kinase-activated protein kinase 2 (P49137 whole entry): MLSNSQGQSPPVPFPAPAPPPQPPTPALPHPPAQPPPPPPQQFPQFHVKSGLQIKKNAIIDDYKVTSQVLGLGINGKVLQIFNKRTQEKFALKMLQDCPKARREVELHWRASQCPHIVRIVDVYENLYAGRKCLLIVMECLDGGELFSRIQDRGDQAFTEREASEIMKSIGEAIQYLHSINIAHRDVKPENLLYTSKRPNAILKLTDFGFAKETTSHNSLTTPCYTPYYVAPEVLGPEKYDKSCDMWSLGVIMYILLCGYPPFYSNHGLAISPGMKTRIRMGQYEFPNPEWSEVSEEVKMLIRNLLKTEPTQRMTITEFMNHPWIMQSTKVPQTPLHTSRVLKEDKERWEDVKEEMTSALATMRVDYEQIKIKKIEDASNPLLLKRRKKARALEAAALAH
Sequence of Casein kinase I isoform gamma-1 (Q9HCP0 whole entry, canonical isoform): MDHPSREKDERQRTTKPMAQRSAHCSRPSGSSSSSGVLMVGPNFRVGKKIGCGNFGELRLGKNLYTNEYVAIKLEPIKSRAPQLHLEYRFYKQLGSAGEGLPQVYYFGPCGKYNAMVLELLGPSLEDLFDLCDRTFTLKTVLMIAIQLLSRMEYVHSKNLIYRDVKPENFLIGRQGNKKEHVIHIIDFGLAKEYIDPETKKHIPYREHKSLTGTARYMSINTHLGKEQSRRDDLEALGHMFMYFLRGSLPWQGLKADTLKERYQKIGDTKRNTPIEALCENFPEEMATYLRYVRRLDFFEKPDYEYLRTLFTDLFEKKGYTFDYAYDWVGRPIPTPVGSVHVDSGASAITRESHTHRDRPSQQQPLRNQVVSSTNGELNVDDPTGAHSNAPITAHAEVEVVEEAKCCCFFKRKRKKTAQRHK
Sequence of Casein kinase I isoform delta (P48730 whole entry, canonical isoform): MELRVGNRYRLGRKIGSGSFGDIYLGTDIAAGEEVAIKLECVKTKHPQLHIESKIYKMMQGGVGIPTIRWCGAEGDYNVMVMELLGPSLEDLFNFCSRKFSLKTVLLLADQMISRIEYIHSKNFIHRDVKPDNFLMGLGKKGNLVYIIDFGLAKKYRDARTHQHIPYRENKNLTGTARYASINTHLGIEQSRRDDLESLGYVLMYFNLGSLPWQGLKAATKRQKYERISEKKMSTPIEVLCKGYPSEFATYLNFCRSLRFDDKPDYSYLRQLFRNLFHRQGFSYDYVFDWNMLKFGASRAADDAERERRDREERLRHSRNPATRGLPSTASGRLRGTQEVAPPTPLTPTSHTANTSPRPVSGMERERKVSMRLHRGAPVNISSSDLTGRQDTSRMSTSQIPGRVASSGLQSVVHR
Sequence of MAP kinase-interacting serine/threonine-protein kinase 2 (Q9HBH9 whole entry): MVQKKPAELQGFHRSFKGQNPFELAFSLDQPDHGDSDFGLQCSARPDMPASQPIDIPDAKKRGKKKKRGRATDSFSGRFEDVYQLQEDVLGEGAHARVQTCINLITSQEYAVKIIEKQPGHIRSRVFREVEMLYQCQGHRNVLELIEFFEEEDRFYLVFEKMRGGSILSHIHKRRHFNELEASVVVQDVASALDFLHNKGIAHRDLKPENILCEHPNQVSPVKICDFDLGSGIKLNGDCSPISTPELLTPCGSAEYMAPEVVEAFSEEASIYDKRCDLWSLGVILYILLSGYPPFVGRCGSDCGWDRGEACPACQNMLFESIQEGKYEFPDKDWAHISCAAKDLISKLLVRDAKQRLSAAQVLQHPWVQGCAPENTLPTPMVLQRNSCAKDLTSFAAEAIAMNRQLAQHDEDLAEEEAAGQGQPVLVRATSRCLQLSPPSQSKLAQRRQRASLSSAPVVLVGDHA
Sequence of Dual specificity protein kinase CLK2 (P49760 whole entry): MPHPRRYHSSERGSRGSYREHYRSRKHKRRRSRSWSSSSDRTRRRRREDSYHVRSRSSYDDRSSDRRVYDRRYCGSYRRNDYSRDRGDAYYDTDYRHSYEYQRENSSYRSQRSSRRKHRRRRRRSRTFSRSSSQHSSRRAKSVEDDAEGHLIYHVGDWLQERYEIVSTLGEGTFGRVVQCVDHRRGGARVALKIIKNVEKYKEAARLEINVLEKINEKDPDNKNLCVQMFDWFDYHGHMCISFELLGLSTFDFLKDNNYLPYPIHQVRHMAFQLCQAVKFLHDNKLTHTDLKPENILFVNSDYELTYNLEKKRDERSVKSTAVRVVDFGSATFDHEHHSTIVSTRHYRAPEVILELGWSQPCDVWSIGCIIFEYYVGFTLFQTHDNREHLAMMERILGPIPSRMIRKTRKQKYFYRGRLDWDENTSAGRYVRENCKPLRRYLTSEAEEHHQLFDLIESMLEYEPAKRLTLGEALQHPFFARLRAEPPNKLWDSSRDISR
Sequence of Mitogen-activated protein kinase 12 (P53778 whole entry): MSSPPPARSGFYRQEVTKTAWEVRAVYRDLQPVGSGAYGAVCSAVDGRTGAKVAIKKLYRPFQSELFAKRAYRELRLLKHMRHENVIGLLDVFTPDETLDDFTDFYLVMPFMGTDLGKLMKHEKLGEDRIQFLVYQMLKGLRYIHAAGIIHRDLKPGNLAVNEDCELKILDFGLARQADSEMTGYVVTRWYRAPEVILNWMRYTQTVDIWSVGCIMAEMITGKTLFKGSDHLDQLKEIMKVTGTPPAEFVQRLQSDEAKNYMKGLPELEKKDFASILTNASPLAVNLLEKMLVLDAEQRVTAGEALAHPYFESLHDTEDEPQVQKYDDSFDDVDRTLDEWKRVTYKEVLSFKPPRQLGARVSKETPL
Sequence of Casein kinase II subunit alpha (P68400 whole entry): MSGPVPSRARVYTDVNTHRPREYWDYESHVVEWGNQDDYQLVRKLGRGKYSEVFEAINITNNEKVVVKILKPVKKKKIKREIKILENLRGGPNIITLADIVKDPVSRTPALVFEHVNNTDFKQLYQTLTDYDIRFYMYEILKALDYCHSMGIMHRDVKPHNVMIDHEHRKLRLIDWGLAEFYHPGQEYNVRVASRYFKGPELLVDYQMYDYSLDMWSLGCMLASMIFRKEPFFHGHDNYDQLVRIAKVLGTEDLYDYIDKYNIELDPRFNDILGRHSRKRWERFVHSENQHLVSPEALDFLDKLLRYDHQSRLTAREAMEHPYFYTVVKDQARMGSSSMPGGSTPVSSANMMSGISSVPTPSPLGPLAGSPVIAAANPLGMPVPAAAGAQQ
Sequence of Mast/stem cell growth factor receptor Kit (P10721 whole entry): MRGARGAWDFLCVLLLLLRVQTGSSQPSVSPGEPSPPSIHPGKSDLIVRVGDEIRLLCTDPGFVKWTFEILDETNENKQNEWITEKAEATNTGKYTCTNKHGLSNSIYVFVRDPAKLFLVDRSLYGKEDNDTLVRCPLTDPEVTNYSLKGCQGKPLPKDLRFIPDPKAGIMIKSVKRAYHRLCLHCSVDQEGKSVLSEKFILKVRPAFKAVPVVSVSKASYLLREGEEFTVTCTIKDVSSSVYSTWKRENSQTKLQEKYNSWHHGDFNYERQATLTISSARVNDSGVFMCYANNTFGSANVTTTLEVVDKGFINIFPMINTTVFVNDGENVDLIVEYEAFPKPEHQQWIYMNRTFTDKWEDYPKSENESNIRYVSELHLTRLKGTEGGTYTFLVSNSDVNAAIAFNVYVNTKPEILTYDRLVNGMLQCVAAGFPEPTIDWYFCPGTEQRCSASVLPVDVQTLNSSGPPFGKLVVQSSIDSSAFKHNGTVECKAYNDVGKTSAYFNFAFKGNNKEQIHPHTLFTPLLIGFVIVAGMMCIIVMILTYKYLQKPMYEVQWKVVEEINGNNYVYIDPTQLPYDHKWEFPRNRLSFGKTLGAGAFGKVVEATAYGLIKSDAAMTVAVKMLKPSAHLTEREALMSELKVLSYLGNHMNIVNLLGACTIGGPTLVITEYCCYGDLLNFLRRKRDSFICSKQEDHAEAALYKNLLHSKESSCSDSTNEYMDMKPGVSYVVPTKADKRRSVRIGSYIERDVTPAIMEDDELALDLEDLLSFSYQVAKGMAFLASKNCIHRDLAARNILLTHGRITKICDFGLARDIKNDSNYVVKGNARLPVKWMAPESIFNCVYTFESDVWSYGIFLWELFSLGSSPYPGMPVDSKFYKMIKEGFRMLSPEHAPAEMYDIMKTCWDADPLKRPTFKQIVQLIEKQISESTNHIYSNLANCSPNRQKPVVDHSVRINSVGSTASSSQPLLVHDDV

NNc1cc(N2CCOCC2)nc(OCCc2ccccn2)n1
inactive: Aurora kinase B > 6.31 µM | [1] > 7.94 µM | [2] > 10 µM | [3] > 7.94 µM | [4] > 10 µM | [5] > 7.94 µM | [6] > 5.01 µM | [7] > 6.31 µM | [8] > 3.98 µM | [9] > 5.01 µM | [10] > 6.31 µM | [11] > 5.01 µM | [12] > 6.31 µM | [13] > 6.31 µM | [14] > 7.94 µM | SRSF protein kinase 1 > 7.94 µM | [15] > 7.94 µM | [16] > 7.94 µM | [17] > 5.01 µM | [18] > 7.94 µM | [19] > 7.94 µM | [20] > 6.31 µM | [21] > 10 µM | [22] > 5.01 µM | [23] > 10 µM | [24] > 3.98 µM | [25] > 7.94 µM | [26] > 6.31 µM | [27] > 10 µM | [28] > 7.94 µM

From ChEMBL document CHEMBL1201862, “PubChem BioAssay data set” (2004)
